Source: patent US11753403B2, “EIF4E inhibitors and uses thereof” (PIC Therapeutics, Inc., priority 2020, dated 2023)

Target: Human eIF4E (aa 28-217) / biotin labeled 4G2 peptide (Homo sapiens (Human), UniProt P06730)
Assay: Human eIF4E/4G2 binding assay (TR-FRET)
Conditions: Human eIF4E/4G2 TR-FRET binding assay; head says IC50, legend says EC50
Procedure: Example 5. Compound Testing in Human eIF4E/4G2 Binding Assay
Human eIF4E (aa 28-217) with a C-terminal His-tag was expressed in E. coli in inclusion bodies. The protein was solubilized with 8 M urea and purified under denaturing conditions using nickel-charged HisTrap HP columns (GE Healthcare). The purified protein was then refolded by diluting in 20 mM Hepes pH 7.0, 0.5 M NaCl, 1 mM DTT, 1 mM EDTA, 0.5 M arginine plus 6 M urea, and then dialyzing overnight into the same buffer without the urea. The protein was further dialyzed into 20 mM Hepes, pH 6.5, 50 mM NaCl, 1 mM EDTA, 1 mM DTT, and concentrated using Hitrap SP sepharose FF columns (GE Healthcare). The concentrated protein was dialyzed into 20 mM Hepes, pH 7.0, 0.5M NaCl, 5 mM DTT and 10% glycerol, and stored at −80° C. until use.
Test compounds (3.43 mM stock in DMSO) were diluted 2-fold in series in DMSO (10 concentration points). Compound solutions (1.2 μl/well) were added into black 384-well polypropylene microplates (Matrix, Thermal Scientific). Twenty-two microliters per well of Assay Buffer (50 mM NaPi, pH 6.5, 50 mM KCl, 1 mM DTT and 0.5 mg/ml gamma globulin) and eight microliters per well of 82.5 nM purified eIF4E in Assay Buffer were added. The samples were incubated at room temperature (20-23° C.) for 4 hours. Biotin labeled 4G2 peptide (Ac-Lys-Gln-Tyr-Asp-Arg-Glu-Phe-Leu-Leu-Asp-Phe-Gln-Phe-Met-Pro-Lys(Aha-Bio)-NH2, 1.75 μM stock in DMSO) was diluted to 0.14 μM in Assay Buffer (without DTT) and 5 μl/well was added. The samples were incubated at room temperature for 20 min. Five microliters per well of 6.4 nM Eu-streptavidin (Eu-SA, Perkin Elmer) and 80 nM Allophycocyanin (APC)-anti His antibody (Columbia Biosciences) in Assay Buffer (without DTT) were then added and the samples were incubated at room temperature for 20 min.
Assay signals were monitored by reading excitation at 340 nm and emission fluorescence at 615 nm and 665 nm on an Envision reader (Perkin Elmer). Normalized TR-FRET (time-resolved fluorescence resonance energy transfer) assay signal (Rn) was calculated by the formula: Rn=[(A−Ba−C×D)/(D−Bd)]×(Dc−Bd) Where A is the fluorescence intensity of the sample at 665 nm, • D is the fluorescence intensity of the sample at 615 nm, • Ba and Bd are plate backgrounds at 665 nm and 615 nm, respectively, • Dc is the fluorescence intensity of 0.78 nM Eu-SA in the assay buffer at 615 nm The cross-talk factor (C) is determined by the following formula: C=(Ac−Ba)/(Dc−Bd) Where Ac is the fluorescence intensity of 0.78 nM Eu-SA in the assay buffer at 665 nm.
IC50 values were calculated using xLFit program (IDBS). Table 2 below lists EC50 of some compounds, wherein A represents EC50≤1 uM; B represents 1 uM<EC50≤10 uM; and C represents EC50>10 uM.

Chain of Human eIF4E (aa 28-217) / biotin labeled 4G2 peptide (P06730 28-217): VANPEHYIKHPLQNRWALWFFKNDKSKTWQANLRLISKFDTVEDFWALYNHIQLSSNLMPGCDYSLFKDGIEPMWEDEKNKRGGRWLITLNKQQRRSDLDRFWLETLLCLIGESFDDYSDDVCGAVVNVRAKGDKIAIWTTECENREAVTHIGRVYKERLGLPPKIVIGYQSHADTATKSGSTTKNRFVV

Row | SMILES | IC50
1 | CC(C)c1sc(NCC(Cc2ccccc2)C(=O)O)nc1-c1ccc(Cl)c(Cl)c1 (stereo not drawn) [I-1, 2-benzyl-3-(4-(3,4-dichlorophenyl)-5-isopropylthiazol-2-ylamino)propanoic acid] | ≤ 1000 nM
2 | CC(C)c1sc(NCC(Cc2cccc3c2OCO3)C(=O)O)nc1-c1ccc(Cl)c(Cl)c1 (stereo not drawn) [I-2] | ≤ 1000 nM
3 | COc1ccccc1CC(CNc1nc(-c2ccc(Cl)c(Cl)c2)c(C(C)C)s1)C(=O)O (stereo not drawn) [I-3] | ≤ 1000 nM
4 | CC(C)c1sc(NCC(Cc2cccc(O)c2)C(=O)O)nc1-c1ccc(Cl)c(Cl)c1 (stereo not drawn) [I-4] | 1000 to 10000 nM
5 | CC(C)c1sc(NCC(Cc2cccc(F)c2)C(=O)O)nc1-c1ccc(Cl)c(Cl)c1 (stereo not drawn) [I-5] | 1000 to 10000 nM
6 | CC(C)c1sc(NCC(CCc2ccccc2)C(=O)O)nc1-c1ccc(Cl)c(Cl)c1 (stereo not drawn) [I-6] | ≤ 1000 nM
7 | CC(C)c1sc(NCC(Cc2cccc3cc[nH]c23)C(=O)O)nc1-c1ccc(Cl)c(Cl)c1 (stereo not drawn) [I-7, 2-((1H-indol-7-yl)methyl)-3-(4-(3,4-dichlorophenyl)-5-isopropylthiazol-2-ylamino) propanoic acid] | ≤ 1000 nM
8 | CC(C)c1sc(NCC(Cc2cccc3[nH]ccc23)C(=O)O)nc1-c1ccc(Cl)c(Cl)c1 (stereo not drawn) [I-8] | 1000 to 10000 nM
9 | CC(C)c1sc(NCC(Cc2c[nH]c3ccccc23)C(=O)O)nc1-c1ccc(Cl)c(Cl)c1 (stereo not drawn) [I-9] | 1000 to 10000 nM
10 | CC(C)c1sc(NCC(Cc2ccc3[nH]ccc3c2)C(=O)O)nc1-c1ccc(Cl)c(Cl)c1 (stereo not drawn) [I-10] | 1000 to 10000 nM
11 | O=C(O)C(CNc1nc(-c2ccc(Cl)c(Cl)c2)c(C2CC2)s1)Cc1ccccc1 (stereo not drawn) [I-11] | 1000 to 10000 nM
12 | COc1ccccc1CC(CNc1nc(-c2ccc(Cl)c(Cl)c2)c(C2CC2)s1)C(=O)O (stereo not drawn) [I-12] | 1000 to 10000 nM
13 | O=C(O)C(CNc1nc(-c2ccc(Cl)c(Cl)c2)c(C2CC2)s1)Cc1cccc(O)c1 (stereo not drawn) [I-13] | 1000 to 10000 nM
14 | O=C(O)C(CNc1nc(-c2ccc(Cl)c(Cl)c2)c(C2CC2)s1)Cc1cccc(F)c1 (stereo not drawn) [I-14] | 1000 to 10000 nM
15 | O=C(O)C(CCc1ccccc1)CNc1nc(-c2ccc(Cl)c(Cl)c2)c(C2CC2)s1 (stereo not drawn) [I-15] | 1000 to 10000 nM
16 | O=C(O)C(CNc1nc(-c2ccc(Cl)c(Cl)c2)c(C2CC2)s1)Cc1cccc2[nH]ccc12 (stereo not drawn) [I-16] | 1000 to 10000 nM
17 | O=C(O)C(CNc1nc(-c2ccc(Cl)c(Cl)c2)c(C2CC2)s1)Cc1ccc2[nH]ccc2c1 (stereo not drawn) [I-17] | ≤ 1000 nM
18 | CC(C)Cc1sc(NCC(Cc2cccc3c2OCO3)C(=O)O)nc1-c1ccc(Cl)c(Cl)c1 (stereo not drawn) [I-19] | ≤ 1000 nM
19 | COc1ccccc1CC(CNc1nc(-c2ccc(Cl)c(Cl)c2)c(CC(C)C)s1)C(=O)O (stereo not drawn) [I-20] | ≤ 1000 nM
20 | CC(C)Cc1sc(NCC(Cc2cccc(O)c2)C(=O)O)nc1-c1ccc(Cl)c(Cl)c1 (stereo not drawn) [I-21] | 1000 to 10000 nM
21 | CC(C)Cc1sc(NCC(Cc2cccc(F)c2)C(=O)O)nc1-c1ccc(Cl)c(Cl)c1 (stereo not drawn) [I-22] | ≤ 1000 nM

Row | SMILES | IC50
22 | CC(C)Cc1sc(NCC(CCc2ccccc2)C(=O)O)nc1-c1ccc(Cl)c(Cl)c1 (stereo not drawn) [I-23] | ≤ 1000 nM
23 | CC(C)Cc1sc(NCC(Cc2cccc3cc[nH]c23)C(=O)O)nc1-c1ccc(Cl)c(Cl)c1 (stereo not drawn) [I-24] | 1000 to 10000 nM
24 | CC(C)Cc1sc(NCC(Cc2cccc3[nH]ccc23)C(=O)O)nc1-c1ccc(Cl)c(Cl)c1 (stereo not drawn) [I-25] | ≤ 1000 nM
25 | CC(C)Cc1sc(NCC(Cc2c[nH]c3ccccc23)C(=O)O)nc1-c1ccc(Cl)c(Cl)c1 (stereo not drawn) [I-26] | 1000 to 10000 nM
26 | CC(C)Cc1sc(NCC(Cc2ccc3[nH]ccc3c2)C(=O)O)nc1-c1ccc(Cl)c(Cl)c1 (stereo not drawn) [I-27] | ≤ 1000 nM
27 | COc1cccc(-c2nc(NCC(Cc3ccccc3)C(=O)O)sc2C(C)C)c1 (stereo not drawn) [I-28] | > 10000 nM
28 | COc1cccc(-c2nc(NCC(Cc3cccc4c3OCO4)C(=O)O)sc2C(C)C)c1 (stereo not drawn) [I-29] | 1000 to 10000 nM
29 | COc1cccc(-c2nc(NCC(Cc3ccccc3OC)C(=O)O)sc2C(C)C)c1 (stereo not drawn) [I-30] | 1000 to 10000 nM
30 | COc1cccc(-c2nc(NCC(Cc3cccc(O)c3)C(=O)O)sc2C(C)C)c1 (stereo not drawn) [I-31] | > 10000 nM
31 | COc1cccc(-c2nc(NCC(Cc3cccc(F)c3)C(=O)O)sc2C(C)C)c1 (stereo not drawn) [I-32] | 1000 to 10000 nM
32 | COc1cccc(-c2nc(NCC(CCc3ccccc3)C(=O)O)sc2C(C)C)c1 (stereo not drawn) [I-33] | 1000 to 10000 nM
33 | COc1cccc(-c2nc(NCC(Cc3cccc4cc[nH]c34)C(=O)O)sc2C(C)C)c1 (stereo not drawn) [I-34] | 1000 to 10000 nM
34 | COc1cccc(-c2nc(NCC(Cc3cccc4[nH]ccc34)C(=O)O)sc2C(C)C)c1 (stereo not drawn) [I-35] | 1000 to 10000 nM
35 | COc1cccc(-c2nc(NCC(Cc3c[nH]c4ccccc34)C(=O)O)sc2C(C)C)c1 (stereo not drawn) [I-36] | 1000 to 10000 nM
36 | COc1cccc(-c2nc(NCC(Cc3ccc4[nH]ccc4c3)C(=O)O)sc2C(C)C)c1 (stereo not drawn) [I-37] | 1000 to 10000 nM
37 | CC(C)c1sc(NCC(Cc2ccccc2)C(=O)O)nc1-c1ccc(Cl)cc1 (stereo not drawn) [I-38] | 1000 to 10000 nM
38 | CC(C)c1sc(NCC(Cc2cccc3c2OCO3)C(=O)O)nc1-c1ccc(Cl)cc1 (stereo not drawn) [I-39] | 1000 to 10000 nM
39 | COc1ccccc1CC(CNc1nc(-c2ccc(Cl)cc2)c(C(C)C)s1)C(=O)O (stereo not drawn) [I-40] | 1000 to 10000 nM
40 | CC(C)c1sc(NCC(Cc2cccc(O)c2)C(=O)O)nc1-c1ccc(Cl)cc1 (stereo not drawn) [I-41] | 1000 to 10000 nM
41 | CC(C)c1sc(NCC(Cc2cccc(F)c2)C(=O)O)nc1-c1ccc(Cl)cc1 (stereo not drawn) [I-42] | 1000 to 10000 nM
42 | CC(C)c1sc(NCC(CCc2ccccc2)C(=O)O)nc1-c1ccc(Cl)cc1 (stereo not drawn) [I-43] | 1000 to 10000 nM

Row | SMILES | IC50
43 | CC(C)c1sc(NCC(Cc2cccc3[nH]ccc23)C(=O)O)nc1-c1ccc(Cl)cc1 (stereo not drawn) [I-44] | 1000 to 10000 nM
44 | CC(C)c1sc(NCC(Cc2c[nH]c3ccccc23)C(=O)O)nc1-c1ccc(Cl)cc1 (stereo not drawn) [I-45] | 1000 to 10000 nM
45 | CC(C)c1sc(NCC(Cc2ccc3[nH]ccc3c2)C(=O)O)nc1-c1ccc(Cl)cc1 (stereo not drawn) [I-46] | 1000 to 10000 nM
46 | CC(C)Cc1sc(N(CCC(=O)O)Cc2ccccc2)nc1-c1ccc(Cl)c(Cl)c1 [I-47, 3-(benzyl(4-(3,4-dichlorophenyl)-5-isobutylthiazol-2-yl)amino)propanoic acid] | ≤ 1000 nM
47 | CC(C)Cc1sc(N(CCC(=O)O)Cc2cccc3c2OCO3)nc1-c1ccc(Cl)c(Cl)c1 [I-48] | ≤ 1000 nM
48 | COc1ccccc1CN(CCC(=O)O)c1nc(-c2ccc(Cl)c(Cl)c2)c(CC(C)C)s1 [I-49] | ≤ 1000 nM
49 | CC(C)Cc1sc(N(CCC(=O)O)Cc2ccccc2O)nc1-c1ccc(Cl)c(Cl)c1 [I-50] | 1000 to 10000 nM
50 | CC(C)Cc1sc(N(CCC(=O)O)Cc2cccc(F)c2)nc1-c1ccc(Cl)c(Cl)c1 [I-51] | ≤ 1000 nM
51 | CC(C)Cc1sc(N(CCC(=O)O)CCc2ccccc2)nc1-c1ccc(Cl)c(Cl)c1 [I-52] | ≤ 1000 nM
52 | CC(C)Cc1sc(N(CCC(=O)O)Cc2cccc3[nH]ccc23)nc1-c1ccc(Cl)c(Cl)c1 [I-53, 3-(((1H-indol-4-yl)methyl)(4-(3,4-dichlorophenyl)-5-isobutylthiazol-2-yl)amino)propanoic acid] | 1000 to 10000 nM
53 | CC(C)Cc1sc(N(CCC(=O)O)Cc2c[nH]c3ccccc23)nc1-c1ccc(Cl)c(Cl)c1 [I-54] | 1000 to 10000 nM
54 | CC(C)Cc1sc(N(CCC(=O)O)Cc2ccc3[nH]ccc3c2)nc1-c1ccc(Cl)c(Cl)c1 [I-55] | ≤ 1000 nM
55 | O=C(O)CCN(Cc1ccccc1)c1nc(-c2ccc(Cl)c(Cl)c2)c(C2CC2)s1 [I-56] | 1000 to 10000 nM
56 | O=C(O)CCN(CCc1ccccc1)c1nc(-c2ccc(Cl)c(Cl)c2)c(C2CC2)s1 [I-57] | ≤ 1000 nM
57 | CC(C)Cc1sc(N(CCC(=O)O)CCC(=O)O)nc1-c1ccc(Cl)c(Cl)c1 [I-58, 3,3′-(4-(3,4-dichlorophenyl)-5-isobutylthiazol-2-ylazanediyl)dipropanoic acid] | > 10000 nM
58 | CC(C)Cc1sc(N(CC(=O)O)Cc2ccccc2)nc1-c1ccc(Cl)c(Cl)c1 [I-59] | ≤ 1000 nM
59 | CC(C)Cc1sc(N(CCc2ccccc2)CC(=O)O)nc1-c1ccc(Cl)c(Cl)c1 [I-60] | ≤ 1000 nM
60 | CC(C)Cc1sc(N(CCC(N)=O)CCC(=O)O)nc1-c1ccc(Cl)c(Cl)c1 [I-61] | > 10000 nM
61 | CC(C)Cc1sc(N(CCC(=O)O)Cc2cccnc2)nc1-c1ccc(Cl)c(Cl)c1 [I-62] | 1000 to 10000 nM
62 | CC(C)Cc1sc(N(CCC(=O)O)Cc2ccncc2)nc1-c1ccc(Cl)c(Cl)c1 [I-63] | 1000 to 10000 nM
63 | CC(C)Cc1sc(N(CCC(=O)O)CC(N)=O)nc1-c1ccc(Cl)c(Cl)c1 [I-64] | 1000 to 10000 nM
